Test results taken from patent publication US20240059685A1, “PIEZO1 AGONISTS FOR THE PROMOTION OF BONE FORMATION” (BIOVENTURES, LLC, priority 2019, published 2024).
Entries after “also recorded” stand apart in the source; their conditions may differ.

What was measured:
Format in all cases: cell-based, murine
Piezo1 [1] = target: T1, Piezo1 (Mus musculus, UniProt E2JF22); test: Activation of Piezo1 in MLO-Y4 cells, overall conclusion from gene expression and calcium influx
T1 construct: To identify Piezo1 stimulators, we treated MLO-Y4 cells with compounds; endogenous in cells; host or cells: MLO-Y4 (murine osteocyte-like cell line); control sh-Luc cells, with sh-Piezo1 knock-down cells as the specificity control
T1 sequence (E2JF22 whole entry): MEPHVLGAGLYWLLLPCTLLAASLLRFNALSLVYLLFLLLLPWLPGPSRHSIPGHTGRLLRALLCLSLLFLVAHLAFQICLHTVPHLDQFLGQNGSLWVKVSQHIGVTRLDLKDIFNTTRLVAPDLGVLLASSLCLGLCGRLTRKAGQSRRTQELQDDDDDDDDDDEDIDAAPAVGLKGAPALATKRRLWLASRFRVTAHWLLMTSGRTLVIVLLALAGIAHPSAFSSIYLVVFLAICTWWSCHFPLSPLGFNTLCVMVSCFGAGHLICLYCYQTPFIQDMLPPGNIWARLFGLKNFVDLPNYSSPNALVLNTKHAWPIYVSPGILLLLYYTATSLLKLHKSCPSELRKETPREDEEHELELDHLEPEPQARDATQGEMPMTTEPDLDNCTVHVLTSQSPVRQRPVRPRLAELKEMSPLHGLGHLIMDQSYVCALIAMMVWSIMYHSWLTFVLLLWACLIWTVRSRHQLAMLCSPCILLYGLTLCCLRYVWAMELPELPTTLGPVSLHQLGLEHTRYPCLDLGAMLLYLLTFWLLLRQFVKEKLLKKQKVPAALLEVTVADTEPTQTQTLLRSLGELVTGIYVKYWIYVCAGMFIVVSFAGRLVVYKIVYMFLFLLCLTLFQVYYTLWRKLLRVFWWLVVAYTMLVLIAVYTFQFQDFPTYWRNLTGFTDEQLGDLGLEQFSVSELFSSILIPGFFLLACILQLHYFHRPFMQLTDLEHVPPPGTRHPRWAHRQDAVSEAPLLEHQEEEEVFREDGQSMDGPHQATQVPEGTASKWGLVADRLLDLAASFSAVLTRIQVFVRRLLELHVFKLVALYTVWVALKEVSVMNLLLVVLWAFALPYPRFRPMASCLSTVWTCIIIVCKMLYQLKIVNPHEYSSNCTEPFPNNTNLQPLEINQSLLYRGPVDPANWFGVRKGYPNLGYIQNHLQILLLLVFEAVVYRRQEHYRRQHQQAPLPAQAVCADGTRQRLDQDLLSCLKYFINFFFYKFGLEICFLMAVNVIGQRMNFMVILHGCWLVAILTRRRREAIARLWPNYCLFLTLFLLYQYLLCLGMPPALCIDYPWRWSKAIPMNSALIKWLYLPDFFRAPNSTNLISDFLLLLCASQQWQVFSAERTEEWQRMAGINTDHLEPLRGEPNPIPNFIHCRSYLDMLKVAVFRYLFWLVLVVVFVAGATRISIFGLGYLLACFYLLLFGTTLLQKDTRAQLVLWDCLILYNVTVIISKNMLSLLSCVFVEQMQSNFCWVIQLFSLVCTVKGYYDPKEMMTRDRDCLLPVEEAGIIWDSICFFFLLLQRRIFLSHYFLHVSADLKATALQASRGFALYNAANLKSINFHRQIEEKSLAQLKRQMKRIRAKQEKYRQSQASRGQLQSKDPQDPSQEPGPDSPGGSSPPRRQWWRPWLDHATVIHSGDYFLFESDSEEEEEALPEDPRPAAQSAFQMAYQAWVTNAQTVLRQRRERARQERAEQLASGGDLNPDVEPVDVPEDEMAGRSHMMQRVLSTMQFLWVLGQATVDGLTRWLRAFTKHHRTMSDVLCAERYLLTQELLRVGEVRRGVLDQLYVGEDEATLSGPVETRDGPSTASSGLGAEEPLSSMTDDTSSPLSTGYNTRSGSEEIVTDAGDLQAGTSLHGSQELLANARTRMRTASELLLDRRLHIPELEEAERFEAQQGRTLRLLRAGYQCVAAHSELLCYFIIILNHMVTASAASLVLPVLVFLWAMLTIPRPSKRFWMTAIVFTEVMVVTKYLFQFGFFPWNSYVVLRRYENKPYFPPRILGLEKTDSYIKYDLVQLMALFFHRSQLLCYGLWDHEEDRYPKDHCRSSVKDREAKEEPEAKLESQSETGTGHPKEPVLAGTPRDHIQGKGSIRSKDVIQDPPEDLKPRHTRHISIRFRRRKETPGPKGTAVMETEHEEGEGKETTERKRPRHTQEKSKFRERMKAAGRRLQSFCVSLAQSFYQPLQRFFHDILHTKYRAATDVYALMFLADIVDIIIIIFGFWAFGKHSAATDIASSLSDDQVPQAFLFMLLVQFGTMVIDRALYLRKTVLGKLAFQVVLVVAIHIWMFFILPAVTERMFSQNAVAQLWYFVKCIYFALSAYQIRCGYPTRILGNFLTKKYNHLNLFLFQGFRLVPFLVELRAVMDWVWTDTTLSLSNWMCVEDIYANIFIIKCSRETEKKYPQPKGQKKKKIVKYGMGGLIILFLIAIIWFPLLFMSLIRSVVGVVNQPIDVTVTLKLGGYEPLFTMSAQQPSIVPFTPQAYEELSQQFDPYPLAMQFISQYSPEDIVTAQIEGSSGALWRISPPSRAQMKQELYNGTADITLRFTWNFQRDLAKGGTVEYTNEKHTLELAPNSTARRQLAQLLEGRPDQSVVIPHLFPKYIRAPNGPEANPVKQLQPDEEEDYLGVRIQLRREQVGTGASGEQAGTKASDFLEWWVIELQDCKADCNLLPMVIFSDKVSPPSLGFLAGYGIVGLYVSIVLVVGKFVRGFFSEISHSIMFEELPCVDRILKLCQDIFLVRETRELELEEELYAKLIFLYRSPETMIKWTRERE
Protocol: (§1) To identify Piezo1 stimulators, we treated MLO-Y4 cells with compounds Yoda1, YW-3-159, W-3-163, W-3-168-1, W-3-168-2, W-3-170, W-3-173-1, W-3-173-2, and YW-3-174. Gene expression of Wnt1, Ptgs2, and Tnfrsf11b was measured to determine the activation of Piezo1. In addition, intracellular calcium concentration was measured to determine the activity of Piezo1 channel. […] Yoda1 was used as a positive control in all experiments.

Piezo1 [2] = target: T1, Piezo1; test: Intracellular calcium concentration (Fluo-8) in control or Piezo1 knock-down MLO-Y4 cells; details: Piezo1 knock-down (sh-Piezo1) MLO-Y4 cells, 10 μM
Protocol: Calcium concentration measurement. For intracellular calcium concentration measurement under fluid flow condition, 1×10^5 MLO-Y4 cells were seeded in a μ-Slide I Luer (0.4 mm) fluid chamber slide (MIDI, Germany) overnight. One hour before initiating fluid flow, the culture medium was removed and 100 μl Hank's Buffer with Hepes (HHBS) containing 4μM Fluo-8 (Abcam, Cambridge, MA) was added to the culture, as described by the manufacturer. The cells were then cultured at 37° C. for 30 minutes. After additional incubation at room temperature for 30 minutes, the chamber slide was placed under a confocal microscope in order to record the intensity of fluorescence of MLO-Y4 cells. Fluorescence was recorded for 3 minutes before starting fluid flow using HHBS and then recorded for another 10 minutes. The increase of intracellular concentration was calculated by subtracting the initial mean fluorescence. For measuring intracellular calcium concentration in cells with Yoda1 treatment, we cultured 4,000 MLO-Y4 cells per well in a 96-well-plate. We preloaded the cells with Fluo-8 as described by the manufacturer and read the intensity of the fluorescence using a Victor X3 multi-label plate reader (Perkin Elmer, Waltham, MA) immediately after the treatment. We measured the fluorescence for 5 minutes at an interval of 20 seconds. The percentage of increase in intracellular calcium concentration was calculated as (Fx-F0)/F0.
as §1

Piezo1 [3] = target: T1, Piezo1; test: qPCR gene expression of Wnt1, Ptgs2 and Tnfrsf11b in MLO-Y4 cells; details: MLO-Y4 cells, 10 μM, 2 hours
Protocol: Cell cultures. MLO-Y4 cells were cultured in α-MEM supplemented with 5% FBS, 5% BCS, and 1% penicillin/streptomycin/glutamine. Fifteen dynes/cm^2 oscillatory fluid shear stress was applied on MLO-Y4 cells at 1 Hz for 2 hours using an IBDI pump system (IBIDI, German). For Yoda1 treatment, cells were cultured in the presence of 10 μM Yoda1 (Sigma, St. Louis, MO) or DMSO for 2 hours. Immediately after the treatments, we isolated RNA from cells using RNeasy mini kit (Qiagen, German) for qPCR or RNA-seq analysis. To silence Piezo1, we generated Piezo1 shRNA expression plasmid using the following oligonucleotides in the pLKO.1-TRC cloning vector (Addgene Plasmid #10878, a gift from David Root): forward oligo: 5′-CCGGTC-[…]-3′ (SEQ ID NO: 1); reverse oligo: 5′-[…]-CGA-3′ (SEQ ID NO: 2) (Zhang et al., 2017). Yap1 shRNA (TRCN0000238432) and Taz shRNA (TRCN0000095951) were purchased from Sigma (St. Louis, MO). A shRNA against firefly luciferase was used as a control (Sigma, St. Louis, MO). For virus production, HEK293T cells were cultured in a 6-well culture plate and co-transfected with a total 3 μg of lentiviral shRNA vector, pMD2G (Addgene plasmid #12259, a gift from Didier Trono), and psPAX2 (Addgene plasmid #12260, a gift from Didier Trono) at the ratio of 2:0.9:0.4 using TransIT-LT1 transfection reagent (Mirus, Madison, WI). Culture media was changed 12 hours after transfection and viral supernatants were collected 48 hours after media change. Viral supernatants were filtered through a 0.45 μm filter and used immediately to transduce cells cultured in a 10 cm dish. Cells were then subjected to selection with G418 (100 μg/ml) or puromycin (25 μg/ml) for 5 days before treatment. To overexpress Piezo1 in MLO-Y4 cells, we transfected mPiezo1-IRES-eGFP (Addgene plasmid #80925, a gift from Ardem Patapoutian) into MLO-Y4 cells using TransIT-LT1 transfection reagent (Mirus, Madison, WI) and then treated these cells with 15 dynes/cm^2 oscillatory fluid shear stress at 1 Hz for 2 hours. Plasmids for expression of Cas9 and sgRNAs for knocking out Piezo1 in UAMS-32 cells were prepared by inserting oligonucleotides encoding the desired sgRNA sequence into the pX458 vector using the protocol recommended by the Zhang laboratory (Cong et al., 2013). Plasmids expressing Cas9 and Piezo1 sgRNAs were transfected into UAMS-32 cells using TransIT-LT1 transfection reagent (Mirus, Madison, WI). Cells were sorted into 96-well plates for single cell cloning 48 hours after transfection. Single cell colonies were then screened for homozygous deletion using the following primers: Forward: 5′-[…]-3′ (SEQ ID NO: 5), Reverse: 5′-[…]-3′ (SEQ ID NO: 6). All homozygous mutant cell colonies were then pooled together for further analysis. Cas9 transfected cells were used as a control. All in vitro cell culture experiments were performed three times with three technical replicates.
Quantitative PCR. Organs and whole bones were harvested from animals, removed of soft tissues, and stored immediately in liquid nitrogen. We prepared osteocyte-enriched bone by removing the ends of femurs and tibias and then flushing the bone marrow with PBS. We then scraped the bone surface with a scalpel and froze them in liquid nitrogen for later RNA isolation, or decalcified them for genomic DNA isolation. We isolated total RNA using TRIzol (Life technologies, NY), according to the manufacturer's instructions and prepared cDNA using High Capacity first strand cDNA synthesis kit (Life Technologies). We performed quantitative RT-PCR using the following Taqman assays from Applied Biosystems: Piezo1 (Mm01241549_m1); Piezo2 (Mm01265861_m1); Ptgs2 (Mm00478374_m1); Cyr61 (Mm00487498_m1); Wnt1 (Mm01300-555_g1); Yap1 (Mm011432-63_m1); Taz (Mm01289583_m1); Tnfsf11 Mm00441906_m1; Tnfrsf11b (Mm00435452_m1); Sost (Mm00470479_m1); and ribosomal protein S2 (Mrps2) (Mm00475529_m1). We calculated relative mRNA amounts using the ΔCt method (Livak and Schmittgen, 2001). […]

activity in activating Piezo1 compared to Yoda1 (Piezo1 [1]; MLO-Y4 cells in vitro): comparable or superior activity
Ptgs2 expression compared with vehicle (Piezo1 [3]): higher Ptgs2 expression
Tnfrsf11b expression compared with vehicle (Piezo1 [3]): higher Tnfrsf11b expression
Wnt1 expression compared with vehicle (Piezo1 [3]): higher Wnt1 expression
SMILES: Clc1ccnc(Cl)c1CSc1nnc(-c2cnccn2)s1 [YW-3-159]
Piezo1 agonist activity (conclusion in words) (Piezo1 [1]; MLO-Y4 cells): potent agonists for Piezo1; also recorded: potent and specific Piezo1 agonists
calcium influx / increase of intracellular calcium in Piezo1 knock-down cells (Piezo1 [2]): completely blocked; also recorded: loss of their ability to stimulate calcium influx
